Reference: ChEMBL document CHEMBL5346923, “Novel pyridinium cationic pleuromutilin analogues overcoming bacterial multidrug resistance” (Eur J Med Chem, 2023)
Activity calls are given as the source filed them. The calls are words filed in the database; no cut-off is given here.

Tests used:
Staphylococcus aureus [1] = assay: Antibacterial activity against 2 times of MIC treated methicillin-resistant Staphylococcus aureus […] assessed as post-antibiotic sub-MIC effect by measuring time required for increase in log10 CFU/ml of bacteria at 0.5 times of MIC incubated for 1 hr by MH broth based assay; assay type: functional
Staphylococcus aureus [2] = assay: Antibacterial activity against methicillin-resistant Staphylococcus aureus infected in rabbit RBC assessed as reduction in haemolysis by measuring haemoglobin level at 0.25 to 1 times of MIC by absorbance based analysis; assay type: functional, organism-based; conditions: Erythrocyte
Staphylococcus aureus [3] = assay: Antibacterial activity against clinical isolate multi-drug resistant Staphylococcus aureus sal assessed as reduction in log10 CFU at 1 times of MIC measured after 8 hrs by time-kill assay; assay type: functional, organism-based
[4] = Toxicity in po dosed BABL/C mouse assessed as lethal dose measured upto 14 days; assay type: organism-based; conditions: in vivo, time < 14 day
Escherichia coli [5] = assay: Antibacterial activity against Escherichia coli MG1655 assessed as inhibition of bacterial growth measured after 24 hrs by MH broth based assay; assay type: functional
Staphylococcus aureus [6] = assay: Antibacterial activity against clinical isolate Staphylococcus aureus harbouring blaZ gene assessed as inhibition of bacterial growth measured after 24 hrs by MH broth based assay; assay type: functional
Staphylococcus aureus [7] = assay: Antibacterial activity against clinical isolate Staphylococcus aureus harbouring ArlS, norA and MgrA gene assessed as inhibition of bacterial growth measured after 24 hrs by MH broth based assay; assay type: functional
Staphylococcus aureus [8] = assay: Antibacterial activity against Staphylococcus aureus ATCC 29213 assessed as inhibition of bacterial growth measured after 24 hrs by MH broth based assay; assay type: functional
Bacillus subtilis = assay: Antibacterial activity against Bacillus subtilis ATCC 6633 assessed as inhibition of bacterial growth measured after 24 hrs by MH broth based assay; assay type: functional
Staphylococcus aureus [9] = assay: Antibacterial activity against methicillin-resistant Staphylococcus aureus assessed as resistance development by measuring fold increase in MIC measured after 24 days; assay type: functional; conditions: time 24 day
[10] = Toxicity in BABL/C mouse assessed as survival rate at 631 mg/kg, po measured upto 14 days; assay type: organism-based; conditions: in vivo, time < 14 day
Streptococcus parasuis [11] = assay: Antibacterial activity against clinical isolate Streptococcus parasuis harbouring optrA gene assessed as inhibition of bacterial growth measured after 24 hrs by MH broth based assay; assay type: functional
Streptococcus pneumoniae [12] = assay: Antibacterial activity against clinical isolate Streptococcus pneumoniae harbouring ermB gene assessed as inhibition of bacterial growth measured after 24 hrs by MH broth based assay; assay type: functional
Staphylococcus aureus [13] = assay: Antibacterial activity against tiamulin-resistant/methicillin-resistant Staphylococcus aureus assessed as inhibition of bacterial growth; assay type: functional
Escherichia coli [14] = assay: Antibacterial activity against Escherichia coli MG1655 harbouring acrB gene assessed as inhibition of bacterial growth measured after 24 hrs by MH broth based assay; assay type: functional
Staphylococcus aureus [15] = assay: Antibacterial activity against multi-drug resistant Staphylococcus aureus sa1 infected in BABL/C mouse assessed as reduction in bacterial load in lungs at 20 mg/kg, ip measured after 2 days; assay type: functional; conditions: time 2 day
Staphylococcus aureus [16] = assay: Antibacterial activity against methicillin-resistant Staphylococcus aureus […] assessed as post antibacterial effect by measuring time required for increase in log10 CFU/ml of bacteria at 4 times of MIC incubated for 1 hr by MH broth based assay; assay type: functional
Staphylococcus aureus [17] = assay: Antibacterial activity against Staphylococcus aureus ATCC 29213 assessed as inhibition of bacterial division at 4 times of MIC by SEM analysis; assay type: functional, organism-based
Enterococcus lactis = assay: Antibacterial activity against clinical isolate Enterococcus lactis assessed as inhibition of bacterial growth measured after 24 hrs by MH broth based assay; assay type: functional
[18] = tested on: Streptococcus hyovaginalis; assay: Antibacterial activity against clinical isolate Streptococcus hyovaginalis harbouring ErmB and tetO gene assessed as inhibition of bacterial growth measured after 24 hrs by MH broth based assay; assay type: functional
Aerococcus viridans = assay: Antibacterial activity against clinical isolate Aerococcus viridans harbouring optrA and ErmA gene assessed as inhibition of bacterial growth measured after 24 hrs by MH broth based assay; assay type: functional
Streptococcus pneumoniae [19] = assay: Antibacterial activity against Streptococcus pneumoniae ATCC 49619 assessed as inhibition of bacterial growth measured after 24 hrs by MH broth based assay; assay type: functional
[20] = Hemolytic activity in rabbit RBC at 200 ug/ml incubated for 5 mins by absorbance based analysis; assay type: toxicity, cell-based, Oryctolagus cuniculus, Erythrocyte; conditions: rabbit red blood cells (erythrocytes), at 200 µg/mL, read-out: Activity
Staphylococcus aureus [21] = assay: Antibacterial activity against multi-drug resistant Staphylococcus aureus sa1 infected in ip dosed BABL/C mouse assessed as survival rate measured upto 7 days; assay type: functional; conditions: sa1, 168 h, time <= 7 day
Streptococcus suis = assay: Antibacterial activity against clinical isolate Streptococcus suis harbouring IsaE and ErmA gene assessed as inhibition of bacterial growth measured after 24 hrs by MH broth based assay; assay type: functional
Staphylococcus aureus [22] = assay: Antibacterial activity against Staphylococcus aureus ATCC 29213 assessed as induction of cell membrane perforation at 4 times of MIC by SEM analysis; assay type: functional, organism-based
Streptococcus parasuis [23] = assay: Antibacterial activity against clinical isolate Streptococcus parasuis harbouring InuD gene assessed as inhibition of bacterial growth measured after 24 hrs by MH broth based assay; assay type: functional
Staphylococcus aureus [24] = assay: Antibacterial activity against methicillin-resistant Staphylococcus aureus ATCC 43300 assessed as reduction in log10 CFU at 6 times of MIC measured after 8 hrs by time-kill assay; assay type: functional
Klebsiella pneumoniae [25] = assay: Antibacterial activity against clinical isolate Klebsiella pneumoniae harbouring blaKpc gene assessed as inhibition of bacterial growth measured after 24 hrs by MH broth based assay; assay type: functional
[26] = tested on: Staphylococcus epidermidis; assay: Antibacterial activity against methicillin-resistant Staphylococcus epidermidis ATCC 51625 assessed as inhibition of bacterial growth measured after 24 hrs by MH broth based assay; assay type: functional
Staphylococcus aureus [27] = assay: Antibacterial activity against clinical isolate multi-drug resistant Staphylococcus aureus sal assessed as inhibition of bacterial growth; assay type: functional
Klebsiella pneumoniae [28] = assay: Antibacterial activity against Klebsiella pneumonia CMCC (B) 46117 assessed as inhibition of bacterial growth measured after 24 hrs by MH broth based assay; assay type: functional
Staphylococcus aureus [29] = assay: Antibacterial activity against clinical isolate Staphylococcus aureus harbouring cfr gene assessed as inhibition of bacterial growth measured after 24 hrs by MH broth based assay; assay type: functional
Proteus = assay: Antibacterial activity against Proteus CMCC (B) 49027 assessed as inhibition of bacterial growth measured after 24 hrs by MH broth based assay; assay type: functional
Klebsiella pneumoniae [30] = assay: Antibacterial activity against clinical isolate Klebsiella pneumoniae harbouring mcr-8 gene assessed as inhibition of bacterial growth measured after 24 hrs by MH broth based assay; assay type: functional
Staphylococcus aureus [31] = assay: Antibacterial activity against methicillin-resistant Staphylococcus aureus ATCC 43300 assessed as inhibition of bacterial growth measured after 24 hrs by MH broth based assay; assay type: functional
Enterococcus hirae = assay: Antibacterial activity against clinical isolate Enterococcus hirae assessed as inhibition of bacterial growth measured after 24 hrs by MH broth based assay; assay type: functional
Staphylococcus aureus [32] = assay: Antibacterial activity against 2 times of MIC treated methicillin-resistant Staphylococcus aureus […] assessed as post-antibiotic sub-MIC effect by measuring time required for increase in log10 CFU/ml of bacteria at 0.25 to 0.5 times of MIC incubated for 1 hr by MH broth based assay; assay type: functional
Staphylococcus aureus [33] = assay: Antibacterial activity against clinical isolate Staphylococcus aureus harbouring cfr and erm C gene assessed as inhibition of bacterial growth measured after 24 hrs by MH broth based assay; assay type: functional
Escherichia coli [34] = assay: Antibacterial activity against Escherichia coli ATCC 25922 assessed as inhibition of bacterial growth measured after 24 hrs by MH broth based assay; assay type: functional

In the case of C=C[C@]1(C)C[C@@H](OC(=O)CSc2cc[n+](CCCCCCC)cc2)[C@]2(C)[C@H](C)CC[C@]3(CCC(=O)[C@H]32)[C@@H](C)[C@@H]1O.[I-], the Time (Staphylococcus aureus [1]) is reported as about 2.7 h, the Activity (Staphylococcus aureus [2]) is reported as “Active” and the Activity (Staphylococcus aureus [3]) is reported as “Active”. It also gave an LD50 at 336 h [4] of 879 mg/kg, an MIC (Escherichia coli [5]) of 32 µg/mL and an MIC (Staphylococcus aureus [6]) of 0.063 µg/mL. The MIC (Staphylococcus aureus [7]) was 0.063 µg/mL, the MIC (Staphylococcus aureus [8]) was 0.063 µg/mL and the MIC (Bacillus subtilis) was 4 µg/mL. The “fold change (FC)” value (Staphylococcus aureus [9]) was 8, the survival at 336 h [10] was 80% and the MIC (Streptococcus parasuis [11]) was 16 µg/mL. For the same molecule, the MIC (Streptococcus pneumoniae [12]) was 0.5 µg/mL, the MIC (Staphylococcus aureus [13]) was 0.5 µg/mL and the MIC (Escherichia coli [14]) was 0.5 µg/mL. The Activity (Staphylococcus aureus [15]) was 3.29 log10CFU/ml, the Time (Staphylococcus aureus [16]) was 2.56 h and the Activity (Staphylococcus aureus [17]) was “Active”. The MIC (Enterococcus lactis) was 32 µg/mL, the MIC [18] was 32 µg/mL and the MIC (Aerococcus viridans) was 2 µg/mL. It also gave an MIC (Streptococcus pneumoniae [19]) of under 0.031 µg/mL, a hemolysis at 5 min, 200 ug/ml [20] of under 14% and an ED50 (Staphylococcus aureus [21]) of 5.68 mg/kg. For the same molecule, the MIC (Streptococcus suis) was 16 µg/mL, the Activity (Staphylococcus aureus [22]) was “Active” and the MIC (Streptococcus parasuis [23]) was 16 µg/mL. The Activity (Staphylococcus aureus [24]) was 2 log10CFU/ml, the MIC (Klebsiella pneumoniae [25]) was 4 µg/mL and the MIC [26] was 0.063 µg/mL. It also gave an MIC (Staphylococcus aureus [27]) of 8 µg/mL, an MIC (Klebsiella pneumoniae [28]) of 2 µg/mL and an MIC (Staphylococcus aureus [29]) of 8 µg/mL. It also gave an MIC (Proteus) of 32 µg/mL, an MIC (Klebsiella pneumoniae [30]) of 2 µg/mL and an MIC (Staphylococcus aureus [31]) of 0.063 µg/mL. It also gave an MIC (Enterococcus hirae) of 0.25 µg/mL, a Time (Staphylococcus aureus [32]) of 2.62 h and an MIC (Staphylococcus aureus [33]) of 8 µg/mL. The MIC (Escherichia coli [34]) was 32 µg/mL.
